Biological target: T1, Human PARG (Homo sapiens, UniProt Q86W56)
T1 construct: The human PARG (hPARG) catalytic domain (residues 389–976) was cloned in pET28a (Novagen); His-tag (N); made in house; host or cells: E. coli Rosetta
Assay: Gel-based PARG activity assay
Assay type: biochemical
Method: PARP1C (2 μM) is enzymatically auto-modified in a reaction containing the PARP1 DBD (2 μM), a 24 mer nicked DNA oligo (2 μM), and NAD^+ (300 μM) for 1 h at 37 °C, as described previously. Human PARG^389–976 (1 nM) was pre-incubated with compounds for 1 h at room temperature. The reaction was initiated by the addition of PARylated PARP1 (final concentration of 500 nM) and quenched after 30 min incubation at room temperature by adding SDS-PAGE sample buffer. The gel was visualized by sypro-ruby staining[18] and the retained PARylated PARP1C species were quantified using ImageJ[59]. PARylated PARP1C that migrates slower than unmodified PARP1C was quantified. […] The IC50 values were determined by fitting the dose-response data for each compound to a four-parameter logistic equation using SigmaPlot (Systat Software Inc.).
To test the specificity of JA2131, human PARG^389–976 (1 nM) was pre-incubated with JA2131 (5, 10, and 20 μM) in the presence and absence of 0.1% Triton-X 100 or 0.1 mg/ml BSA for 1 h at room temperature. The reaction was initiated, quenched, visualized, and quantified as described above. […]
PARG activity assay. […]
PARP1 (500 nM). The reaction was quenched after a 30 -minu te in cu ba tion a t roo m te mpe ra tu re by adding SDS-PA GE sa mp le bu f fe r. PARylated PARP1C runs as a smear on SDS -PAGE that is reduced to a single band by PARG treatment. […]
2). (b) Qu an t if ica t ion o f the dose-response PARG inhibition by JA2 -3 using the gel-based PARG activity assay. hPARG (1 nM) was preincubated with increasing concentrations (0.032 – 1 µM) of JA2-3 f o r 1 hour at room temperature before PARylated PARP1C (500 nM) was added. The reaction was quenched after a 30-minu te incubation at room temperature. PARylated PARP1C migrates slower than unmodified PARP1C and was quantified using ImageJ. […] The rate of the PARG-dependent signal loss in the TR-FRET PAR turnover assay is not equivalent to the steady-state rate of PAR turnover, because the TR-FRET assay can’t detect signal loss until the length of PAR chains become shorter than 7 ADP-ribose units. Therefore, we used the gel-based PARG activity assay to accurately determine the IC50 values throughout the manuscript .

T1 sequence (Q86W56 389-976): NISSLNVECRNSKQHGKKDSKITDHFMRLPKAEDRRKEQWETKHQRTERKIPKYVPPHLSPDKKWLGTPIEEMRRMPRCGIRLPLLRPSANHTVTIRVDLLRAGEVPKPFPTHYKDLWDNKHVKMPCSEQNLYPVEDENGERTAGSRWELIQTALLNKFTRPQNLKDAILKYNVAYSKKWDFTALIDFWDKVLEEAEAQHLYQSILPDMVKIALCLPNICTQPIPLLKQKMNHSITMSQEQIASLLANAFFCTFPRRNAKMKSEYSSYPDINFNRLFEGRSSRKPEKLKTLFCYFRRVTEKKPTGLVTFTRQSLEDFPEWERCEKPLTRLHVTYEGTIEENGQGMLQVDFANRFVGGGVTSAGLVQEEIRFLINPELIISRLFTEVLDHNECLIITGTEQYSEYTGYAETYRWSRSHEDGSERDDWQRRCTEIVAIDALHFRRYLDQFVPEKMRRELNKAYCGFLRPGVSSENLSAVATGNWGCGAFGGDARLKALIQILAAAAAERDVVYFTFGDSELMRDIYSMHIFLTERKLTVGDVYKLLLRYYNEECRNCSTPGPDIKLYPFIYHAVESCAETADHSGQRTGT

Which results are given for `Cn1c(=S)c2[nH]c(SCCN3CCOCC3)nc2n(C)c1=O` [JA2131]?
potency difference JA2131 (6´-thiocarbonyl) vs JA2120 (6´-carbonyl): more than 50 fold; effect of detergent or nonspecific protein on PARG inhibition (JA2131 5, 10, 20 μM, 0.1% Triton-X 100 or 0.1 mg/ml BSA): Neither the addition of Triton-X 100 nor BSA significantly altered the inhibitory potency; inhibition at 0.0488281 µM ([L] 0.0488281 uM): 13.8%; inhibition at 0.0976562 µM ([L] 0.0976562 uM): 26.2%; inhibition at 0.195312 µM ([L] 0.195312 uM): 34.6%; inhibition at 0.390625 µM ([L] 0.390625 uM): 58.8%; inhibition at 0.78125 µM ([L] 0.78125 uM): 62.5%; inhibition at 1.5625 µM ([L] 1.5625 uM): 75.5%; inhibition at 3.125 µM ([L] 3.125 uM): 84.3%; inhibition at 6.25 µM ([L] 6.25 uM): 98.7%; inhibition at 12.5 µM ([L] 12.5 uM): 99.5%; inhibition at 25 µM ([L] 25 uM): 104%; inhibition at 50 µM ([L] 50 uM): 94%; IC50 (hPARG 1 nM, PARylated PARP1C 500 nM, 30 min): 0.4 µM
